Assay results as given in patent publication EP4458352A1, “EICOSAPENTAENOIC ACID ESTER DERIVATIVES FOR THE TREATMENT OF OBESITY” (Technische Universität Dresden, priority 2023, dated 2024).

Legend:
[1] = system: primary adrenal cell cultures; assay: Steroid hormone production (LC-MS/MS) in primary adrenal cell cultures treated with SC-26196, with or without ACTH or ARA; type: cell-based, WT C57BL/6J mice
Description: Adrenal glands or adrenal corteces were isolated from WT C57BL/6J mice, cleaned from the surrounding fat tissue and incubated in collagenase buffer (1.6 mg/ml collagenase type I, 1.6 mg/ml BSA) for 45 min at 37 °C, while shaking at 900 rpm. Dissociated cells were passed through 22 G needle and a 100 µm cell strainer and centrifuged at 300 × g for 5 min at 4 °C. Cells of a pool from two adrenals of each mouse were distributed in four 0.2 % gelatin-precoated wells of a 96-well plate in DMEM/F12 supplemented with 1 % FBS, 50 U/mL penicillin and 50 µg/mL streptomycin. Two hours after seeding 10 µM SC-26196 (Tocris, Wiesbaden-Nordenstadt, Germany) or same amount of carrier (DMSO) were added without changing the medium. In some experiments medium was additionally supplemented with 150 µM ARA (Sigma Aldrich, Germany) or same amount of solvent (endotoxin-free water). When induction of steroidogenesis was required, the medium was changed 18 h after treatment and the cells were incubated with or without 10 ng/mL ACTH for 60 min in the presence of either 10 µM SC-26196 or DMSO. Supernatants were kept for steroid hormone measurement and cell lysates were collected for transcriptional analysis. In some experiments, primary CD31-CD45- adrenocortical cells were treated or not for 18 h with 66 µM EPA (Sigma-Aldrich). Steroid hormones in plasma and cell culture supernatants were analyzed by LC-MS/MS as previously described (71). Fifty to hundred µL plasma or cell culture supernatants were extracted by solid phase extraction using positive pressure, followed by a dry-down under gentle stream of nitrogen. Residues were reconstituted in 100 µL of the initial LC mobile phase and 10 µL were injected for detection by the triple quadrupole mass spectrometer in multiple reaction-monitoring scan mode using positive electrospray ionization. Quantification of steroid concentrations was done by comparisons of ratios of analyte peak areas to respective peak areas of stable isotope labeled internal standards obtained in samples to those of calibrators.

adrenal cortex = assay: RNA-Seq and GSEA of the adrenal cortex of HFD mice with or without icosapent ethyl; type: in vivo, WT C57BL/6J mice; details: HFD with icosapent ethyl versus HFD without; n=4 mice per group
Description: Six weeks-old male WT C57BL/6J mice were fed for 20 weeks a LFD (D12450B, Research Diets, NJ, USA) or a HFD (D12492, Research Diets, NJ, USA). In some experiments, WT C57BL/6J mice were fed for 8 weeks a HFD and for another 8 weeks a HFD supplemented with SC-26196 (Biorbyt Ltd). SC-26196 was mixed in the HFD at a concentration of 625 mg/kg of diet corresponding to approx. 100 mg/kg of animal weight. In other experiments WT mice were fed for 10 weeks a HFD and for another 10 weeks a HFD supplemented with icosapent ethyl (Vascepa). […]
For transcriptome mapping, strand-specific paired-end sequencing libraries from total RNA were constructed using TruSeq stranded Total RNA kit (Illumina Inc). […] Low quality nucleotides were removed with the Illumina fastq filter and reads were further subjected to adaptor trimming using cutadapt (85). Alignment of the reads to the Mouse genome was done using STAR Aligner (86) using the parameters: "-runMode alignReads -outSAMstrandField intronMotif-outSAMtype BAM SortedByCoordinate-readFilesCommand zcat". […] The parameters: `htseq-count -f bam -s reverse -m union -a 20', HTSeq-0.6.1p1 (87) were used to count the reads that map to the genes in the aligned sample files. The GTF file (gencode.vM12.annotation.gtf) used for read quantification was downloaded from Gencode (https://www.gencodegenes.org/mouse/release_M12.html). […]

[2] = ARA 150 µM with SC-26196 10 µM, 18 h, n=6-8

SMILES | 11-deoxycorticosterone production in cells treated with SC-26196 [1, 2] | corticosterone production in cells treated with SC-26196 [1, 2] | progesterone production in cells treated with SC-26196 [1, 2] | steroidogenesis in adrenocortical cells ([1]; ARA supplementation (150 µM)) | genes being down-regulated in the adrenal cortex (RNA-Seq) (adrenal cortex) | genes being up-regulated in the adrenal cortex (RNA-Seq) (adrenal cortex)
CCCCC/C=C\C/C=C\C/C=C\C/C=C\CCCC(=O)O [ARA, all-cis-5,8,11,14-eicosatetraenoic acid] | partially restored | partially restored | partially restored | increased steroidogenesis | – | –
CC/C=C\C/C=C\C/C=C\C/C=C\C/C=C\CCCC(=O)OCC [icosapent ethyl, eicosapentaenoic acid ethyl ester] | – | – | – | – | 162 | 266
